From ChEMBL document CHEMBL1201862, “PubChem BioAssay data set” (2004)
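Cells were grown in 96-well plates and exposed to each compound for 48 hours at five concentrations; endpoints were interpolated linearly between bracketing concentrations, or set to the highest concentration if not reached. GI50: concentration for 50% inhibition of growth.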 The source made the active and inactive calls. Cut-off read from the data, not from the text of the source: active = GI50 up to about 1.1 µM and inactive = higher.

Tests used:
Test in all cases: NCI-60 cell line screen, 48 h
[1] = test system: A549
[2] = test system: ACHN
[3] = test system: CAKI-1
[4] = test system: HCC 2998
[5] = test system: HOP-62
[6] = test system: IGROV-1
[7] = test system: KM12
[8] = test system: LXFL 529
[9] = test system: SF-268
[10] = test system: SF-539
[11] = test system: SK-MEL-5
[12] = test system: SN12C
[13] = test system: UACC-62
[14] = test system: UO-31

Measured: GI50

CCc1c(C)[nH]c2c1/C(=N/N=C1\CCCc3[nH]c(C)c(CC)c31)CCC2
inactive: [1] 27.9 µM | [2] 18.6 µM | [3] 29.4 µM | [4] > 100 µM | [5] > 100 µM | [6] 20 µM | [7] 15.7 µM | [8] 13.8 µM | [9] 19.3 µM | [10] 28.2 µM | [11] 14.2 µM | [12] 29.2 µM | [13] 18.5 µM | [14] 14.5 µM

N#C/C(=C\c1cc(OCc2ccccc2)c(OCc2ccccc2)cn1)C(N)=O
inactive: [1] > 100 µM | [2] > 100 µM | [3] > 100 µM | [4] > 100 µM | [5] > 100 µM | [6] > 100 µM | [7] > 100 µM | [8] > 100 µM | [9] > 100 µM | [10] > 100 µM | [11] > 100 µM | [12] > 100 µM | [13] > 100 µM | [14] > 100 µM

Cc1ccc(/N=C2\N=C(N3CC(C)OC(C)C3)c3ccccc32)cc1 (stereo not given)
inactive: [1] 39.9 µM | [2] 28.6 µM | [3] 20.4 µM | [4] 29.5 µM | [5] 37.9 µM | [6] 27.5 µM | [7] 22 µM | [8] 18.9 µM | [9] 25.9 µM | [10] 17.9 µM | [11] 23.6 µM | [12] 34.5 µM | [13] 29.6 µM | [14] 21.3 µM

CC(N)Cc1ccc(Cl)cc1 (stereo not given)
inactive: [1] > 100 µM | [2] > 100 µM | [3] > 100 µM | [4] > 100 µM | [5] > 100 µM | [6] 42.4 µM | [7] > 100 µM | [8] > 100 µM | [9] > 100 µM | [10] > 100 µM | [11] 72.1 µM | [12] > 100 µM | [13] > 100 µM | [14] 59.4 µM

CCCCCCCCCCCCSC(=S)c1c(C)[nH]n(-c2ccccc2)c1=O
inactive: [1] 11.8 µM | [2] 16.9 µM | [3] 19.1 µM | [4] 5.36 µM | [5] 5.16 µM | [6] 14.6 µM | [8] 9.12 µM | [9] 12.6 µM | [10] 14.3 µM | [11] 5.58 µM | [12] 8.28 µM | [13] 3.52 µM | [14] 13.6 µM

OCC(O)C(O)C(O)c1nn(-c2ccc(F)cc2)c2nc3cc(Cl)c(Cl)cc3nc12 (stereo not given)
inactive: [1] 13.3 µM | [2] > 10 µM | [3] 21.7 µM | [4] 29.4 µM | [5] 12.7 µM | [6] 21.9 µM | [7] 23.3 µM | [8] 28.1 µM | [9] 16.9 µM | [10] 13.9 µM | [12] 22.1 µM | [13] 16.9 µM | [14] 33.5 µM

O=C1C=CC2(CCCCCCC2=O)CC1 (stereo not given)
inactive: [1] > 100 µM | [2] > 100 µM | [3] > 100 µM | [4] > 100 µM | [5] > 100 µM | [6] > 100 µM | [7] > 100 µM | [8] > 100 µM | [9] > 100 µM | [10] > 100 µM | [11] > 100 µM | [12] > 100 µM | [13] > 100 µM | [14] > 100 µM

O=C(O)/C=C/C(=O)N1C/C(=C\c2ccccc2)C(=O)/C(=C/c2ccccc2)C1
inactive: [1] 21.4 µM | [2] 8.13 µM | [3] 15.1 µM | [4] 6.67 µM | [5] 23.4 µM | [6] 16.7 µM | [7] 2.55 µM | [8] 1.8 µM | [9] 6.35 µM | [10] 10.8 µM | [11] 8.95 µM | [12] 6.81 µM | [13] 2.97 µM | [14] 18.2 µM

CCOC(=O)C(CCC(N)=O)(CCC(=O)OC)C(=O)OCC
inactive: [1] > 100 µM | [2] > 100 µM | [3] > 100 µM | [4] > 100 µM | [5] > 100 µM | [6] > 100 µM | [7] > 100 µM | [8] > 100 µM | [9] > 100 µM | [10] > 100 µM | [12] > 100 µM | [13] > 100 µM | [14] > 100 µM

CCOC(=O)NC(=O)c1cn(CCN2CCN(C(=O)CNC(=O)CNC(=O)Cn3cc(C(=O)NC(=O)OCC)c(=O)[nH]c3=O)CC2)c(=O)[nH]c1=O
inactive: [1] > 100 µM | [2] > 100 µM | [3] > 100 µM | [4] > 100 µM | [5] > 100 µM | [7] > 100 µM | [8] > 100 µM | [9] > 100 µM | [10] > 100 µM | [12] > 100 µM | [13] > 100 µM | [14] > 100 µM

Cc1ccc(C)c(NC(=O)CC/C(=N\NC(=O)c2c(O)ccc3ccccc23)C(C)C(=O)c2ccc(O)cc2)c1 (stereo not given)
inactive: [1] 65 µM | [2] 25.2 µM | [3] 65.2 µM | [4] 44.6 µM | [5] 49.5 µM | [6] 52 µM | [7] 51.2 µM | [8] 30.5 µM | [9] 17.9 µM | [10] 30.7 µM | [11] 41.3 µM | [12] 38.6 µM | [13] 17.3 µM | [14] 17.9 µM

COc1cc(C[P+](c2ccccc2)(c2ccccc2)c2ccccc2)cc(OC)c1OC
inactive: [1] > 100 µM | [2] > 100 µM | [3] > 100 µM | [4] > 100 µM | [5] > 100 µM | [6] > 100 µM | [7] > 100 µM | [8] > 100 µM | [9] > 100 µM | [10] > 100 µM | [11] > 100 µM | [12] > 100 µM | [13] > 100 µM | [14] > 100 µM

O=C(O)CCNS(=O)(=O)c1ccc(NC(=O)c2ccccc2)cc1
inactive: [1] > 100 µM | [2] > 100 µM | [3] > 100 µM | [4] > 100 µM | [6] > 100 µM | [7] > 100 µM | [8] > 100 µM | [9] > 100 µM | [10] > 100 µM | [11] > 100 µM | [12] > 100 µM | [13] > 100 µM | [14] > 100 µM

CN(C)c1ccc(/C=C(/C(=O)O)c2csc(-c3nc(/C(=C\c4ccc(N(C)C)cc4)C(=O)O)cs3)n2)cc1
inactive: [1] > 100 µM | [2] > 100 µM | [3] > 100 µM | [4] > 100 µM | [5] > 100 µM | [6] > 100 µM | [7] > 100 µM | [8] 96.4 µM | [9] > 100 µM | [10] > 100 µM | [11] 86.5 µM | [12] > 100 µM | [13] 80.9 µM | [14] 60.3 µM
